Test results taken from US9468670B2, “Melatonin-based treatment and diagnosis of bile duct disease” (Texas A&M University System, priority 2011, dated 2016).

Columns and labels:
[1] = system: large cholangiocyte lines; experiment: PCNA expression and PKA, ERK1/2 phosphorylation (immunoblots) in immortalized large cholangiocytes; format: cell-based, mouse; conditions: melatonin 10^−11 M, 48 hours
Text: The expression of MT1 and MT2 receptors in immortalized large cholangiocytes was first evaluated by immunofluorescence (Francis et al., 2008). Images were visualized using an Olympus IX-71 confocal microscope. For all immunoreactions, negative controls (with normal serum from the same species substituted for the primary antibody) were included. It was next evaluated by commercially available radioimmunoassay (RIA) kits ([…] et al., 1998; Kato et al., 1992; […] et al., 1999; […] et al., 2004) for cAMP levels ([…] et al., 1998; Kato et al., 1992; […] Shiu et al., 2010). […] […] et al., 1992; Ramirez-Rodriguez et al., 2009; […], 1999). […] Shiu et al., 2010) before evaluating by immunoblots (Francis et al., 2008) the expression of PCNA and the phosphorylation of PKA and EKR1/2.

miR-34a = experiment: miRNA expression in melatonin treated xenograft tumor tissues; conditions: melatonin treatment in vivo
Protocol: Methods: miRNA expression in normal human cholangiocytes (HiBECs), and the CCA cell lines Mz-ChA-1 and TFK cells, as well as melatonin treated xenograft tumor tissues were evaluated using a hybridization-based miRNA microarray. The expression of selected mature miRNAs was also assessed by real-time PCR. The effect of selected miRNAs on cell growth and invasion was assessed using miRNA modulators to alter cellular expression. Cell migration and invasion through a matrigel layer was quantitated using commercial assays. BCL-2, period homolog 1 (PER1) and tissue inhibitor of metalloproteinases 3 (TIMP-3) mRNA expression was quantitated by real-time PCR analysis.

[2] = rat, in vivo, 1 mg/kg/day
Protocol: In separate experiments, normal rats treated with Vivo-Morpholino sequences of AANAT (5′-[…] (SEQ ID NO:1), to reduce the biliary expression of AANAT) or Morpholino mismatched (5′-[…] (SEQ ID NO:2)) (Gene Tools LCC) (1 mg/Kg BW/day) for 1 week via an implanted portal vein catheter. Serum, liver tissue, cholangiocytes, kidney, spleen, small intestine, stomach and heart were collected. Since our goal was to knock-down AANAT expression in the liver without inhibiting AANAT expression in other organs, we used a lower dose (1 mg/Kg/day) of Vivo-Morpholino than that described in the original study (3.0 mg/kg/day (Arora et al., 2002). This approach minimizes the amount of Vivo-Morpholino that circulates outside of the liver after slow infusion into the portal vein. See below for the surgical procedure for the implantation of the portal vein catheter by which AANAT Vivo-Morpholino or Morpholino mismatched was administered.
Biliary proliferation was determined by measurement of the percentage of PCNA-positive cholangiocytes by immunohistochemistry, and intrahepatic bile duct mass (IBDM) by immunohistochemistry for CK-19 (Mancinelli et al., 2010). Biliary apoptosis was evaluated by semiquantitative terminal deoxynucleotidyltransferase biotin-dUTP nick-end labeling (TUNEL) kit (Chemicon International, Inc., Temecula, Calif.) (Mancinelli et al., 2010). IBDM was determined as the area occupied by CK-19 positive-bile duct/total area×100 (Mancinelli et al., 2010). The morphological changes/damage in liver, spleen, kidney, heart, stomach, and small intestine were evaluated from AANAT Vivo-Morpholino- or mismatch-treated rats by H&E staining. The serum levels of the transaminases, glutamate pyruvate transaminases (SGPT) and glutamic oxaloacetic transaminase (SGOT), alkaline phosphatase (ALP) and total bilirubin were evaluated using a Dimension RxL Max Integrated Chemistry system (Dade Behring Inc., Deerfield Ill.), Chemistry Department, Scott & White.

Compound	PCNA expression and phosphorylation of PKA and ERK2 (but not ERK1) [1]	miR-34a expression in Mz-ChA-1 xenograft tumor (miR-34a)	ALP [2] [Units/L]	SGOT [2] [Units/L]	SGPT [2] [Units/L]	Total bilirubin [2] [mg/L]
COc1ccc2[nH]cc(CCNC(C)=O)c2c1 [melatonin]	decreased	significant reduction				
AANAT Vivo-Morpholino: Vivo-Morpholino sequence of AANAT 5′-GTTCCCCAGCTTTGGAAGTGGTCCC (SEQ ID NO:1), to reduce the biliary expression of AANAT (all phosphorodiamidate morpholino (PMO); Vivo-Morpholino delivery moiety attached, position not given here, further chemistry not fully specified)			230.2 ± 5.2	148.5 ± 22.5	72.25 ± 0.2	<0.1
